Patent US10294202B2, “Pyrrolidinones as herbicides” (FMC Corporation, priority 2013, dated 2019)

Legend:
morningglory = assay: Test A pre-/postemergence herbicide test; format: in vivo, Ipomoea spp.
Summary of the method: (§1)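 Seeds in loam–sand blend received preemergence directed soil spray; separately, plants 2–10 cm at one- to two-leaf stage received postemergence spray, both with test chemicals in non-phytotoxic solvent with surfactant. After ~10 days in greenhouse, injury rated visually against untreated controls, 0 (no effect) to 100 (complete control).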

corn = assay: Test A pre-/postemergence herbicide test; format: in vivo, Zea mays
Summary of the method: as §1

rice = assay: Test B flooded paddy test; format: in vivo, Oryza sativa; settings: Flood, scale of 0 to 100 where 0 is no effect and 100 is complete control
Summary of the method: (§2)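 Visual ratings from 0, meaning no effect, up to 100, meaning complete control, were made by comparison with untreated controls 13 to 15 days after treatment. Test compounds went straight into floodwater standing 3 cm over the soil of pots holding 2-leaf seedlings.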

barnyardgrass [1] = assay: Test B flooded paddy test; format: in vivo, Echinochloa crus-galli; settings: Flood, scale of 0 to 100 where 0 is no effect and 100 is complete control
Summary of the method: as §2

wheat = assay: Test A pre-/postemergence herbicide test; format: in vivo, Triticum aestivum
Summary of the method: as §1

crabgrass, large = assay: Test A pre-/postemergence herbicide test; format: in vivo, Digitaria sanguinalis
Summary of the method: as §1

barnyardgrass [2] = assay: Test A pre-/postemergence herbicide test; format: in vivo, Echinochloa crus-galli
Summary of the method: as §1

giant foxtail = assay: Test A pre-/postemergence herbicide test; format: in vivo, Setaria faberii
Summary of the method: as §1

sedge, umbrella = assay: Test B flooded paddy test; format: in vivo, Cyperus difformis; settings: Flood, scale of 0 to 100 where 0 is no effect and 100 is complete control
Summary of the method: as §2

velvetleaf = assay: Test A pre-/postemergence herbicide test; format: in vivo, Abutilon theophrasti
Summary of the method: as §1

ducksalad = assay: Test B flooded paddy test; format: in vivo, Heteranthera limosa; settings: Flood, scale of 0 to 100 where 0 is no effect and 100 is complete control
Summary of the method: as §2

pigweed = assay: Test A pre-/postemergence herbicide test; format: in vivo, Amaranthus retroflexus
Summary of the method: as §1

[3] = Postemergence, 125 g ai/ha, visual rating on 0 to 100 scale (0 no effect, 100 complete control), approx. 10 days
[4] = Postemergence, 500 g ai/ha, 0 to 100 scale (0 no effect, 100 complete control)
[5] = Preemergence, 125 g ai/ha, 0 to 100 scale where 0 is no effect and 100 is complete control
[6] = preemergence, 500 g ai/ha, 0 to 100 scale, 0 is no effect and 100 is complete control
[7] = Postemergence, 125 g ai/ha, 0 to 100 scale, 0 is no effect, 100 is complete control
[8] = Postemergence, 1000 g ai/ha, 0 to 100 scale (0 no effect, 100 complete control)
[9] = Preemergence, 1000 g ai/ha, visual rating on 0 to 100 scale (0 no effect, 100 complete control), approx. 10 days
[10] = Postemergence, 125 g ai/ha, 0 to 100 scale, 0 no effect, 100 complete control
[11] = Preemergence, 125 g ai/ha, visual rating on 0 to 100 scale (0 no effect, 100 complete control)
[12] = preemergence, 500 g ai/ha, 0 to 100 scale
[13] = preemergence, 500 g ai/ha, 0 to 100 scale (0 no effect, 100 complete control)

O=C1NCC(c2ccc(Cl)c(C(F)(F)F)c2)C1C(=O)Nc1ccccc1C(F)(F)F (racemic) [Compound 269]
Plant response rating, Morningglory (morningglory; [3]): 0 | Plant response rating, Morningglory (morningglory; [4]): 0 | Plant response rating, Morningglory (morningglory; [5]): 0 | Plant response rating, Morningglory (morningglory; [6]): 0 | Plant response rating, Corn (corn; [7]): 0 | Plant response rating, Corn (corn; [4]): 20 | Plant response rating, Corn (corn; [5]): 0 | Plant response rating, Corn (corn; [6]): 0 | Plant response rating, Rice (rice; 1000 g ai/ha): 0 | Plant response rating, Barnyardgrass (barnyardgrass [1]; 1000 g ai/ha): 0 | Plant response rating, Wheat (wheat; [3]): 0 | Plant response rating, Wheat (wheat; [4]): 0 | Plant response rating, Wheat (wheat; [5]): 0 | Plant response rating, Wheat (wheat; [6]): 0 | Plant response rating, Crabgrass, Large (crabgrass, large; [7]): 60 | Plant response rating, Crabgrass, Large (crabgrass, large; [4]): 80 | Plant response rating, Crabgrass, Large (crabgrass, large; [5]): 80 | Plant response rating, Crabgrass, Large (crabgrass, large; [6]): 90 | Plant response rating, Barnyardgrass (barnyardgrass [2]; [7]): 50 | Plant response rating, Barnyardgrass (barnyardgrass [2]; [4]): 70 | Plant response rating, Barnyardgrass (barnyardgrass [2]; [5]): 70 | Plant response rating, Barnyardgrass (barnyardgrass [2]; [6]): 80 | Plant response rating, Foxtail, Giant (giant foxtail; [7]): 70 | Plant response rating, Foxtail, Giant (giant foxtail; [4]): 80 | Plant response rating, Foxtail, Giant (giant foxtail; [5]): 80 | Plant response rating, Foxtail, Giant (giant foxtail; [6]): 80 | Plant response rating, Sedge, Umbrella (sedge, umbrella; 1000 g ai/ha): 0 | Plant response rating, Velvetleaf (velvetleaf; [5]): 0 | Plant response rating, Velvetleaf (velvetleaf; [6]): 0 | Plant response rating, Ducksalad (ducksalad; 1000 g ai/ha): 100 | Plant response rating, Pigweed (pigweed; [3]): 70 | Plant response rating, Pigweed (pigweed; [4]): 60 | Plant response rating, Pigweed (pigweed; [5]): 50 | Plant response rating, Pigweed (pigweed; [6]): 70

Cn1ccc(NC(=O)C2C(=O)NCC2c2ccc(F)c(F)c2)n1 (stereo not drawn) [Compound 31]
Plant response rating, Morningglory (morningglory; [8]): 0 | Plant response rating, Corn (corn; [8]): 30 | Plant response rating, Corn (corn; [9]): 20 | Plant response rating, Rice (rice; 250 g ai/ha): 0 | Plant response rating, Barnyardgrass (barnyardgrass [1]; 250 g ai/ha): 0 | Plant response rating, Wheat (wheat; [8]): 0 | Plant response rating, Wheat (wheat; [9]): 50 | Plant response rating, Crabgrass, Large (crabgrass, large; [8]): 20 | Plant response rating, Crabgrass, Large (crabgrass, large; [9]): 80 | Plant response rating, Barnyardgrass (barnyardgrass [2]; [8]): 60 | Plant response rating, Barnyardgrass (barnyardgrass [2]; [9]): 50 | Plant response rating, Foxtail, Giant (giant foxtail; [8]): 20 | Plant response rating, Foxtail, Giant (giant foxtail; [9]): 80 | Plant response rating, Sedge, Umbrella (sedge, umbrella; 250 g ai/ha): 0 | Plant response rating, Velvetleaf (velvetleaf; [8]): 0 | Plant response rating, Velvetleaf (velvetleaf; [9]): 0 | Plant response rating, Ducksalad (ducksalad; 250 g ai/ha): 0 | Plant response rating, Pigweed (pigweed; [8]): 0 | Plant response rating, Pigweed (pigweed; [9]): 0

O=C1NCC(c2ccc(Cl)nc2)C1C(=O)Nc1ccccc1C(F)(F)F (stereo not drawn) [Compound 42]
Plant response rating, Morningglory (morningglory; [10]): 0 | Plant response rating, Morningglory (morningglory; [4]): 0 | Plant response rating, Corn (corn; [10]): 0 | Plant response rating, Corn (corn; [4]): 0 | Corn plant response rating (corn; [11]): 0 | Plant response rating, Corn (corn; [12]): 0 | Plant response rating, Rice (rice; 250 g ai/ha): 0 | Plant response rating, Barnyardgrass (barnyardgrass [1]; 250 g ai/ha): 0 | Plant response rating, Wheat (wheat; [10]): 0 | Plant response rating, Wheat (wheat; [4]): 0 | Wheat plant response rating (wheat; [11]): 0 | Plant response rating, Wheat (wheat; [12]): 0 | Plant response rating, Crabgrass, Large (crabgrass, large; [10]): 0 | Plant response rating, Crabgrass, Large (crabgrass, large; [4]): 70 | Crabgrass, Large plant response rating (crabgrass, large; [11]): 80 | Plant response rating, Crabgrass, Large (crabgrass, large; [12]): 90 | Plant response rating, Barnyardgrass (barnyardgrass [2]; [10]): 0 | Plant response rating, Barnyardgrass (barnyardgrass [2]; [4]): 40 | Barnyardgrass plant response rating (barnyardgrass [2]; [11]): 0 | Plant response rating, Barnyardgrass (barnyardgrass [2]; [13]): 60 | Plant response rating, Foxtail, Giant (giant foxtail; [10]): 0 | Plant response rating, Foxtail, Giant (giant foxtail; [4]): 20 | Foxtail, Giant plant response rating (giant foxtail; [11]): 20 | Plant response rating, Foxtail, Giant (giant foxtail; [12]): 80 | Plant response rating, Sedge, Umbrella (sedge, umbrella; 250 g ai/ha): 0 | Plant response rating, Velvetleaf (velvetleaf; [10]): 30 | Plant response rating, Velvetleaf (velvetleaf; [4]): 50 | Velvetleaf plant response rating (velvetleaf; [11]): 0 | Plant response rating, Velvetleaf (velvetleaf; [12]): 0 | Plant response rating, Ducksalad (ducksalad; 250 g ai/ha): 60 | Plant response rating, Pigweed (pigweed; [10]): 0 | Plant response rating, Pigweed (pigweed; [4]): 0 | Pigweed plant response rating (pigweed; [11]): 0 | Plant response rating, Pigweed (pigweed; [12]): 30

CS(=O)(=O)c1ccccc1NC(=O)C1C(=O)NCC1c1ccc(Cl)c(Cl)c1 (stereo not drawn) [Compound 43]
Plant response rating, Morningglory (morningglory; [8]): 10 | Plant response rating, Morningglory (morningglory; [9]): 0 | Plant response rating, Corn (corn; [8]): 0 | Plant response rating, Corn (corn; [9]): 0 | Plant response rating, Rice (rice; 250 g ai/ha): 0 | Plant response rating, Barnyardgrass (barnyardgrass [1]; 250 g ai/ha): 0 | Plant response rating, Wheat (wheat; [8]): 0 | Plant response rating, Wheat (wheat; [9]): 0 | Plant response rating, Crabgrass, Large (crabgrass, large; [8]): 20 | Plant response rating, Crabgrass, Large (crabgrass, large; [9]): 90 | Plant response rating, Barnyardgrass (barnyardgrass [2]; [8]): 40 | Plant response rating, Barnyardgrass (barnyardgrass [2]; [9]): 20 | Plant response rating, Foxtail, Giant (giant foxtail; [8]): 50 | Plant response rating, Foxtail, Giant (giant foxtail; [9]): 80 | Plant response rating, Sedge, Umbrella (sedge, umbrella; 250 g ai/ha): 0 | Plant response rating, Velvetleaf (velvetleaf; [8]): 30 | Plant response rating, Velvetleaf (velvetleaf; [9]): 0 | Plant response rating, Ducksalad (ducksalad; 250 g ai/ha): 0 | Plant response rating, Pigweed (pigweed; [8]): 20 | Plant response rating, Pigweed (pigweed; [9]): 0

COc1ncccc1NC(=O)C1C(=O)NCC1c1ccc(F)c(F)c1 (stereo not drawn) [Compound 46]
Plant response rating, Morningglory (morningglory; [10]): 0 | Plant response rating, Morningglory (morningglory; [4]): 0 | Morningglory plant response rating (morningglory; [11]): 0 | Plant response rating, Morningglory (morningglory; [12]): 0 | Corn plant response rating (corn; [11]): 0 | Plant response rating, Corn (corn; [12]): 0 | Plant response rating, Rice (rice; 250 g ai/ha): 0 | Plant response rating, Barnyardgrass (barnyardgrass [1]; 250 g ai/ha): 0 | Plant response rating, Wheat (wheat; [10]): 0 | Plant response rating, Wheat (wheat; [4]): 0 | Wheat plant response rating (wheat; [11]): 0 | Plant response rating, Wheat (wheat; [12]): 0 | Plant response rating, Crabgrass, Large (crabgrass, large; [10]): 30 | Plant response rating, Crabgrass, Large (crabgrass, large; [4]): 60 | Crabgrass, Large plant response rating (crabgrass, large; [11]): 70 | Plant response rating, Crabgrass, Large (crabgrass, large; [12]): 90 | Plant response rating, Barnyardgrass (barnyardgrass [2]; [10]): 0 | Plant response rating, Barnyardgrass (barnyardgrass [2]; [4]): 0 | Barnyardgrass plant response rating (barnyardgrass [2]; [11]): 0 | Plant response rating, Barnyardgrass (barnyardgrass [2]; [13]): 50 | Plant response rating, Foxtail, Giant (giant foxtail; [10]): 0 | Plant response rating, Foxtail, Giant (giant foxtail; [4]): 40 | Foxtail, Giant plant response rating (giant foxtail; [11]): 40 | Plant response rating, Foxtail, Giant (giant foxtail; [12]): 80 | Plant response rating, Sedge, Umbrella (sedge, umbrella; 250 g ai/ha): 0 | Plant response rating, Velvetleaf (velvetleaf; [10]): 0 | Plant response rating, Velvetleaf (velvetleaf; [4]): 0 | Velvetleaf plant response rating (velvetleaf; [11]): 0 | Plant response rating, Velvetleaf (velvetleaf; [12]): 0 | Plant response rating, Ducksalad (ducksalad; 250 g ai/ha): 0 | Plant response rating, Pigweed (pigweed; [10]): 0 | Plant response rating, Pigweed (pigweed; [4]): 0 | Pigweed plant response rating (pigweed; [11]): 0 | Plant response rating, Pigweed (pigweed; [12]): 0

O=C1NCC(c2ccc(F)c(F)c2)C1C(=O)Nc1ccccc1Br (stereo not drawn) [Compound 55]
Plant response rating, Morningglory (morningglory; [10]): 0 | Plant response rating, Morningglory (morningglory; [4]): 0 | Morningglory plant response rating (morningglory; [11]): 0 | Plant response rating, Morningglory (morningglory; [12]): 0 | Plant response rating, Corn (corn; [10]): 0 | Plant response rating, Corn (corn; [4]): 0 | Corn plant response rating (corn; [11]): 0 | Plant response rating, Corn (corn; [12]): 0 | Plant response rating, Rice (rice; 250 g ai/ha): 50 | Plant response rating, Barnyardgrass (barnyardgrass [1]; 250 g ai/ha): 50 | Plant response rating, Wheat (wheat; [10]): 0 | Plant response rating, Wheat (wheat; [4]): 0 | Wheat plant response rating (wheat; [11]): 0 | Plant response rating, Wheat (wheat; [12]): 0 | Plant response rating, Crabgrass, Large (crabgrass, large; [10]): 80 | Plant response rating, Crabgrass, Large (crabgrass, large; [4]): 80 | Crabgrass, Large plant response rating (crabgrass, large; [11]): 80 | Plant response rating, Crabgrass, Large (crabgrass, large; [12]): 90 | Plant response rating, Barnyardgrass (barnyardgrass [2]; [10]): 30 | Plant response rating, Barnyardgrass (barnyardgrass [2]; [4]): 90 | Barnyardgrass plant response rating (barnyardgrass [2]; [11]): 20 | Plant response rating, Barnyardgrass (barnyardgrass [2]; [13]): 80 | Plant response rating, Foxtail, Giant (giant foxtail; [10]): 70 | Plant response rating, Foxtail, Giant (giant foxtail; [4]): 80 | Foxtail, Giant plant response rating (giant foxtail; [11]): 70 | Plant response rating, Foxtail, Giant (giant foxtail; [12]): 90 | Plant response rating, Sedge, Umbrella (sedge, umbrella; 250 g ai/ha): 70 | Plant response rating, Velvetleaf (velvetleaf; [10]): 0 | Plant response rating, Velvetleaf (velvetleaf; [4]): 0 | Velvetleaf plant response rating (velvetleaf; [11]): 0 | Plant response rating, Velvetleaf (velvetleaf; [12]): 0 | Plant response rating, Ducksalad (ducksalad; 250 g ai/ha): 75 | Plant response rating, Pigweed (pigweed; [10]): 0 | Plant response rating, Pigweed (pigweed; [4]): 0 | Pigweed plant response rating (pigweed; [11]): 0 | Plant response rating, Pigweed (pigweed; [12]): 0
